Patent US9044526B2, “Medical product containing active component of propolis or grapefruit seed extract and manufacturing method thereof” (Korea Institute of Ceramic Engineering and Technology, priority 2011, dated 2015)

What was measured:
[1] = Drug release of impregnated multifilament in 0.01M PBS; assay type: physicochemical; conditions: release from multifilament impregnated with 1000 ppm solution; 0.01M PBS pH 7.4, 37, examined 0-100 hours
Procedure: In order to examine the […] drug release of each of the multifilament samples impregnated with CAPE and GSE for 440 min and pinocembrin for 720 min in Example 3, the following test was performed. As a solvent for use in this release test, 0.01M PBS (by phosphate buffer calculator, monobasic monohydrate: 1.1832 g, and dibasic ACS reagent: 8.1572 g) was prepared and adjusted to a pH of 7.4. After standard curves of FIGS. 5A, 5B and 5C for the grapefruit seed extracts and CAPE and pinocembrin (the active components of propolis) were plotted, and then tests for the materials were performed at the respective concentrations. The standard curves for the functional materials were obtained by measuring the absorbance using JASCO V-550 UV-Vis Spectrometer (Wavelength Range: 200-900 nm; Bandwidth Selectable: 0.5 nm; Scanning Speed: 400 nm/min; Data Pitch: 1 nm). The standard curve equations shown in FIGS. 5A (CAPE), 5B (Pinocembrin) and 5C (grapefruit seed extract) are as follows: y=0.126x+0.022 CAPE (1) y=0.051x+0.021 Pinocembrin (2) y=0.002x−0.035 Grapefruit seed extract (3) wherein x is the concentration of each functional material, and y is the absorbance of each functional material. […]

[2] = test system: Escherichia coli DH 5α (ATCC 25922); experiment: Antibacterial activity of impregnated multifilament, agar diffusion; assay type: cell-based; conditions: contained in multifilament, treatment concentration 1000 ppm, 37.1° C., 24 hours, FIG. 8
Procedure: (§1) The antibacterial activity of the multifilament of Example containing the grapefruit seed extract and the active components (CAPE and pinocembrin) of propolis was tested. In the test, the cells of bacterial strains were grown in LB medium (peptone 10 g) by agar diffusion, and the growth of the bacterial strains was examined by UV-Vis spectroscopy. As the test strains, Staphylococcus aureus (ATCC 6538) and Escherichia coli DH 5α (ATCC 25922) were used. The bacterial cells were cultured at 37.1° C. for 24 hours, and then changes in the bacterial strains were measured. FIG. 8 is a set of photographs showing a comparison of antibacterial activity between a multifilament containing the grapefruit seed extract and a multifilament containing the active component (CAPE) of propolis. […] In FIG. 8, 1: a control group, 2 to 6: samples impregnated with a solution of CAPE and the grapefruit seed extract; a: a sample treated with Staphylococcus aureus; b: a sample treated with Escherichia coli DH 5α. In the photograph of FIG. 8, the treatment concentration is 1000 ppm. […] Although a lower concentration of the antibacterial material is contained in the multifilament, it is considered that the test should be carried out at 1000 ppm, because the concentration of the antibacterial material in the multifilament will be excessively low when the test is carried out at a lower concentration. […]

[3] = test system: Staphylococcus aureus (ATCC 6538); experiment: as above; assay type: cell-based; conditions: contained in multifilament, treatment concentration 1000 ppm, 37.1° C., 24 hours, FIG. 8
Procedure: as §1

[4] = Degradation behavior of PGLA multifilament in PBS solution; assay type: physicochemical
Description: FIG. 9 is a photograph showing the results of observing the degradation behavior of 0.1 g of the PGLA multifilament in PBS solution (pH7.4; similar to the human body) for 0 day, 10 days and 2 months. […] Also, it can be seen that the grapefruit seed extract and CAPE or pinocembrin which is the active component of propolis have no effect on the degradation of the multifilament.

Row | Compound | time at which drug release behavior was completed [1] | antibacterial activity [2] | antibacterial activity [3] | effect on the degradation of the multifilament ([4]; pH 7.4) | effect on the degradation of the multifilament ([4]; PBS solution pH7.4, 0 day, 10 days and 2 months, FIG. 9) | degradation of the multifilament ([4]; pH 7.4)
1 | O=C(/C=C/c1ccc(O)c(O)c1)OCCc1ccccc1 [CAPE, caffeic acid phenethyl ester] | ≤ 64 h | showed antibacterial activity | showed antibacterial activity | no effect | – | –
2 | O=C1CC(c2ccccc2)Oc2cc(O)cc(O)c21 (stereo not shown) [pinocembrin] | ≤ 60 h | – | – | – | no effect | –
3 | poly(glycolide-co-L-lactide) [PGLA multifilament] | – | – | – | – | – | significantly rapid
